Laboratory results published in PMC7269146, “Jingzhaotoxin-X, a gating modifier of Kv4.2 and Kv4.3 potassium channels purified from the venom of the Chinese tarantula Chilobrachys jingzhao” (The Journal of Venomous Animals and Toxins Including …, 2020).
Where a SMILES comes first, the peptide text is derived from it. Bridges are numbered along the chain shown (N, C = ends).

Target: T1, Kv4.3 (Rattus norvegicus, UniProt Q62897)
T1 construct: expressed in transfected cells; host or cells: HEK293t
T1 sequence (Q62897 1-655): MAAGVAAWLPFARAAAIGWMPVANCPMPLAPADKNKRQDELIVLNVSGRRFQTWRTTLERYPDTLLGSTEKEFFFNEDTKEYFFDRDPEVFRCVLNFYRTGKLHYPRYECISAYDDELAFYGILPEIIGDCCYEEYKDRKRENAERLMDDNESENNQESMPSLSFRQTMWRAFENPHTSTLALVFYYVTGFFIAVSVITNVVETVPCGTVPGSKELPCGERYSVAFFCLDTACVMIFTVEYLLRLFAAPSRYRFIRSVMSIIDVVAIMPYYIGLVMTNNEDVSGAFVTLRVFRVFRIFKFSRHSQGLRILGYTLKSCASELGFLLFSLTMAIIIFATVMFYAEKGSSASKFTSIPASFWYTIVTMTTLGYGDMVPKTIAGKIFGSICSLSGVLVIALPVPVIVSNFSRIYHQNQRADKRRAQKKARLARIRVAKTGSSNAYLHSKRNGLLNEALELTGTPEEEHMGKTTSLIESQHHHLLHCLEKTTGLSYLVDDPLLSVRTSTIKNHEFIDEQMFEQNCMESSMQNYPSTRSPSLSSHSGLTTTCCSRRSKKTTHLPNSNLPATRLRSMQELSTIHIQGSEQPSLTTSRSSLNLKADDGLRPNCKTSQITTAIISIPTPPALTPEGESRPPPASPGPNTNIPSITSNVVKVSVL
Test: microelectrode voltage-clamp, Xenopus laevis oocytes, Kv4.3
Assay type: cell-based
Settings: +20 mV from -90 mV, n = 5, read-out: inhibition of Kv4.3 current
Source text: Rat cDNA genes encoding Kv4.2 (Accession: NM_031730.2) and Kv4.3 (Accession: AB003587.1) were subcloned to vector pcDNA3.1. In addition, human cDNA genes encoding Nav1.7 (Accession: DQ857292.1) and Nav1.5 (Accession: AB158469.2) were subcloned to vectors pcDNA3.1-mod and pcDNA3.1, separately. Then, Kv4.2, Kv4.3, Nav1.5 and Nav1.7 constructs were transiently transfected into the human embryonic kidney 293t (HEK293t) cells using lipofectamine 2000 (Invitrogen, USA) in accordance with manufacturer protocols. Thereafter, HEK293 cells were inoculated within Dulbecco’s modified Eagle’s medium (DMEM) containing 10% fetal bovine serum (FBS) at 5% CO2 and 37°C. The Kv4.3 channel and the Kv4.2 counterpart were then transfected in the absence of β subunit. Subsequently, cells were incubated with a DNA-lipofectamine mixture (one reporter plasmid for green fluorescence protein and channel constructs) for 4-6 h, and were washed with the fresh medium.
Briefly, plasmids were linearized, and transcription was carried out according to the standardized protocol. Afterwards, the capped cRNAs that encoded the related ion channels were prepared. […]

CC(C)C[C@@H]1NC(=O)[C@H](CCCCN)NC(=O)[C@H](Cc2ccc(O)cc2)NC(=O)[C@@H]2CSSC[C@@H]3NC(=O)[C@H](Cc4ccc(O)cc4)NC(=O)[C@H](Cc4ccccc4)NC(=O)CNC(=O)[C@H](C)NC(=O)[C@H](CSSC[C@H](NC(=O)[C@@H](N)CC(C)C)C(=O)N[C@@H](CO)C(=O)N[C@@H](CCCNC(=N)N)C(=O)N[C@@H](CCC(=O)O)C(=O)NCC(=O)N[C@@H](CCC(=O)O)C(=O)N[C@@H](Cc4ccccc4)C(=O)N2)NC(=O)[C@H](CSSC[C@@H](C(=O)N[C@@H](Cc2ccc(O)cc2)C(=O)N[C@@H](CCCNC(=N)N)C(=O)N[C@@H](CC(N)=O)C(=O)O)NC(=O)[C@H](Cc2c[nH]cn2)NC(=O)[C@H](CC(C)C)NC(=O)[C@H](C(C)C)NC(=O)[C@H](Cc2ccccc2)NC(=O)[C@H](C)NC(=O)[C@H](CCCCN)NC3=O)NC(=O)[C@H](CCCCN)NC(=O)[C@H](CCCNC(=N)N)NC1=O [JZTX-X, Jingzhaotoxin-X] (H-LCSREGEFCYKLRKCCAGFYCKAFVLHCYRN-OH; disulfide 2-16, 9-21, 15-28; N-terminus assumed)
inhibition at 1 µM: 72.4 ± 4.8%
